In test [1] the target is T1, rabbit kidney ACE (Oryctolagus cuniculus, UniProt P12822).
T1 construct: purchased Sigma; host or cells: rabbit kidney
T1 sequence (P12822 34-1310): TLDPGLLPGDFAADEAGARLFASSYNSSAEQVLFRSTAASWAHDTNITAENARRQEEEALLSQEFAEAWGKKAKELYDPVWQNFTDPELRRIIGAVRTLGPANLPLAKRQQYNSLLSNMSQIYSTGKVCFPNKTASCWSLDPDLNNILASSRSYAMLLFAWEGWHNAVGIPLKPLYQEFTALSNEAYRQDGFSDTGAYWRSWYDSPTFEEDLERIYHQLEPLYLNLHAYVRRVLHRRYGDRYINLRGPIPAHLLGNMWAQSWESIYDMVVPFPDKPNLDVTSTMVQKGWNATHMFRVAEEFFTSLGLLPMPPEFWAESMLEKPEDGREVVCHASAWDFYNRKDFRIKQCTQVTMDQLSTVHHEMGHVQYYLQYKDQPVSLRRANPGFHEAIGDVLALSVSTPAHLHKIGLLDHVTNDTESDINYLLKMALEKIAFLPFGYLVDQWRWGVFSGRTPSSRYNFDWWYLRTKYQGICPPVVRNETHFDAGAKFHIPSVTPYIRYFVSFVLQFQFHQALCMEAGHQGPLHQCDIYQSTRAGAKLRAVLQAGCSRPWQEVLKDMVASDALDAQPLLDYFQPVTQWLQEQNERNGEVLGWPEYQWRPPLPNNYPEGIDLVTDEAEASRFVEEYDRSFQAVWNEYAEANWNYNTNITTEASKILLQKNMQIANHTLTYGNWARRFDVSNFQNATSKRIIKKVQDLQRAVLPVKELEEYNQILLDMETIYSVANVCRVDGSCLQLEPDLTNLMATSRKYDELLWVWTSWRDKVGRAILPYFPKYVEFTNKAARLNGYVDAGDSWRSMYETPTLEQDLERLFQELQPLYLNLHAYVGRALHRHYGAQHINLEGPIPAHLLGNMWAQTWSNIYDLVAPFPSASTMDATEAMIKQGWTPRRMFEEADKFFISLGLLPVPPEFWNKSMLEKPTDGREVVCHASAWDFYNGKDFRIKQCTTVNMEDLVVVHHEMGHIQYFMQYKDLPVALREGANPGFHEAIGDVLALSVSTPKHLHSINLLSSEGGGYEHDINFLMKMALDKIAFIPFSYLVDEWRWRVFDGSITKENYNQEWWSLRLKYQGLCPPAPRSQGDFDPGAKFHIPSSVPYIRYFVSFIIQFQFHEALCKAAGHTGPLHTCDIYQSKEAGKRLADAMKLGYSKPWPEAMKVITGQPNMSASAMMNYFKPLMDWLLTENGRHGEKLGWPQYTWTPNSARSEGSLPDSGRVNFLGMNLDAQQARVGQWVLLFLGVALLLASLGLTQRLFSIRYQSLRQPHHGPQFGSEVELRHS
Briefly: Determination of inhibition constants (Ki), fluorometric ACE assay, hydrolysis of Hippuryl-His-Leu. The test is classed as biochemical. How it is done:
The product, His-Leu, was then derivatized to a fluorophore by the addition of 2% o-phthalaldehyde (0.1 mL) in MeOH, followed by incubation at 25° C. for 8 minutes, addition of 2N HCl (0.2 mL), and then measuring fluorescence after 15 minutes incubation at 25° C.
The fluorescence intensity (arbitrary units) was determined using an SLM Aminco model 8000 spectrofluorometer equipped with a temperature regulated cell using an excitation wavelength at 360 nm and with an emission wavelength at 490 nm. The amount of His-Leu formed with time was determined from standard curves of fluorescence versus concentration of His-Leu (Sigma).
Inhibition constants were determined from double reciprocal plots of rate of product formation versus substrate concentration in the absence and presence of inhibitor.

Test [2] deals with T1, rabbit kidney ACE. Briefly: in vitro inhibition of ACE by soluble compound pools (deconvolution analysis of library, fluorometric assay, IC50). The test is classed as biochemical. The conditions noted are these: identified by iterative assay and sub-library resynthesis. From the text: Functionalized prolines and proline analogs are frequently found as the C-terminal residue in numerous ACE inhibitors. Using the methods described herein, a library of prolines and proline analogs has been prepared. The library was formed by the split synthesis method^35, using four amino acids, four aldehydes, five olefins, and three mercaptoacyl chlorides as shown in FIG. 3 below. […] After cleavage from the resin (10% TFA in dichloromethane) and deacetylation of the protected mercaptoacyl proline products with ethylenediamine, the library was screened for in vitro inhibition of ACE^33 as soluble compound pools through four iterations of assay and sub-library resynthesis. At each step of this deconvolution analysis, the building block affording the most inhibitory pool was selected for the subsequent sub-library resynthesis.
To each product was added 200 μ.LAMBDA. of 1.0M ethylenediamine in methanol under nitrogen. […] The ACE inhibitory activity of each pool was immediately determined. […]
The fluorescence intensity (arbitrary units) was determined using an SLM Aminco model 8000 spectrofluorometer equipped with a temperature regulated cell using an excitation wavelength at 360 nm and with an emission wavelength at 490 nm. The amount of His-Leu formed with time was determined from standard curves of fluorescence versus concentration of His-Leu (Sigma). […]

Two molecules from patent publication US5525735A, “Methods for synthesizing diverse collections of pyrrolidine compounds” (AFFYMAX Technologies NV, priority 1994, dated 1996) can be followed below.

Molecules are shown by their SMILES. Like-named read-outs stand apart in the source and are kept apart here. Where only a bound is given, the exact number is not on record here.

What is called Ki is a dissociation constant, usually derived from enzyme kinetics or from competition with a known ligand.

In the case of `COC(=O)[C@@H]1C[C@H](C(=O)O)N(C(=O)[C@H](C)CS)[C@@H]1c1ccccc1` (single isomer, unassigned) [earlier eluting isomer], at rabbit kidney ACE [1] (after deacetylation, isomer assigned 2-R, read-out: Ki (individual diastereomers after deacetylation, earlier eluting isomer)), the Ki is > 1000 nM.

`COC(=O)[C@H]1C[C@@H](C(=O)O)N(C(=O)[C@H](C)CS)[C@H]1c1ccccc1` [Compound 9, 1-(3'-thio-2'(S)-methyl-1'-oxopropyl)-5-phenyl-2,4-pyrrolidinedicarboxylicacid 4-methyl ester]: the “ACE inhibitory activity in words (library deconvolution)” value at rabbit kidney ACE [2] is reported as “potent ACE inhibitor”. In addition, the Ki on rabbit kidney ACE [1] (50 pM enzyme, 20 minute preincubation, assay times 10 or 20 minutes, pH 8.3, read-out: Ki (dissociation constant of the enzyme-inhibitor complex)) was 0.16 ± 0.05 nM; at rabbit kidney ACE [1] (after deacetylation, read-out: Ki (individual diastereomers after deacetylation, later eluting isomer)) it was ~0.16 nM. Also, the type of inhibition result at rabbit kidney ACE [1] (double reciprocal plots, 50 pM enzyme, 20 minute preincubation) is listed as “competitive type inhibition”. Moreover, the “fold more active than captopril” value on rabbit kidney ACE [1] (relative to captopril in the same assay) is recorded as “approximately 3 fold”.
